{
  "source": "patent US6440965B1",
  "about": "“Substituted pyrimidine derivatives, their preparation and their use in the treatment of neurodegenerative or neurological disorders of the central nervous system” (Krenitsky Pharmaceuticals, Inc., priority 1997, dated 2002)",
  "data": [
    {"test_system": "PC-12 cells", "assay": "not given", "settings": "cited from earlier work", "values": [
      {"smiles": "O=C(CCn1cnc2c(=O)[nH]cnc21)Nc1ccc(C(=O)O)cc1", "note": "[AIT-082, 4[[3-(1,6-dihydro-6-oxo-9-purin-9-yl)-1-oxopropyl]amino]benzoic acid]", "NGF action in cultured PC-12 cells": "enhance NGF action"}
    ]},
    {"test_system": "working memory", "assay": "not given", "settings": "mice; cited from earlier work", "values": [
      {"smiles": "O=C(CCn1cnc2c(=O)[nH]cnc21)Nc1ccc(C(=O)O)cc1", "note": "[AIT-082, 4[[3-(1,6-dihydro-6-oxo-9-purin-9-yl)-1-oxopropyl]amino]benzoic acid]", "age induced working memory deficits": "restore age induced working memory deficits"}
    ]},
    {"test_system": "not given", "assay": "not given", "settings": "not given", "units": {"melting point": "°C"}, "values": [
      {"smiles": "O=C(Nc1ccccc1)Nc1ncc(Oc2ccc(Cl)cc2)c(N2CCOCC2)n1", "melting point": "229 to 231"},
      {"smiles": "CN(C)c1nc(N)ncc1Cc1ccccc1", "melting point": "181 to 182"},
      {"smiles": "CC(C)(C)C(=O)OCCN1CCN(c2nc(N)ncc2Oc2ccc(Cl)cc2)CC1", "melting point": "123 to 125"},
      {"smiles": "Nc1ncc(Oc2ccc(Cl)cc2)c(N2CCNCC2)n1", "melting point": "93 to 95"},
      {"smiles": "Nc1ncc(Oc2ccc(Cl)cc2)c(N2CCN(CCO)CC2)n1", "melting point": "121 to 123"},
      {"smiles": "Cl.Nc1ncc(Oc2ccc(Cl)cc2)c(NCCOCCO)n1", "melting point": "140 to 141"},
      {"smiles": "Nc1ncc(Oc2ccc(Cl)cc2)c(N2CCOCC2)n1", "melting point": "138 to 140"},
      {"smiles": "CC(=O)N1CCN(c2nc(N)ncc2Oc2ccc(Cl)cc2)CC1", "melting point": "153 to 157"}
    ]},
    {"test_system": "PC12 cells", "assay": "Screen for NGF-like activity in cultured PC12 cells (neurite outgrowth, potentiation of NGF)", "type": "cell-based, rat", "settings": "2 days incubation, with or without a limiting concentration of NGF", "description": "Cultured PC12 cells (rat adrenal pheochromocytoma from ATCC) have receptors for NGF. Responses include promotion of neurite outgrowth and elevation of choline acetyltransferase (ChAT) (L. A. Greene and A. S. Tischler, Cell Neurobiol., 3, 373 (1982)).\nThe following assay is substantially as described in H L White and P W Scates, Neurochem. Res., 16, 63 (1991). PC12 cells were cultured at 37° C. in DMEM supplemented with fetal bovine serum, horse serum, glutamine, penicillin, streptomycin and non-essential amino acids. Cultures were split 1:4 every 4 or 5 days. Exponentially dividing cells were plated in fresh medium on collagen-coated 12-well plastic dishes. After allowing one day for cell attachment, the medium was replaced with low serum medium, with or without test compounds and also with or without a limiting concentration of NGF, with each condition in triplicate. The medium may contain up to 0.1% ethanol, which was used as a solvent for most compounds being tested. Cells were examined daily for morphological changes using an Olympus IMT-2 inverted research microscope. After 2 days incubation with test compounds, cells and media were transferred to 1.5 mL Eppendorf tubes. Aliquots of 20 uL were reserved for cell counting and viability determination by trypan blue exclusion. The remaining cell suspensions were centrifuged, and the cell pellets were washed once in serum-free medium and finally resuspended in 30 uL of distilled water containing eserine, an inhibitor of acetylcholinesterase. The suspensions were stored at −80° C. until they were assayed for choline acetyltransferase. Compounds are judged NGF-like in this primary screen if they (1) increase the activity of choline acetyltransferase, (2) enhance NGF-stimulated neurite outgrowth or (3) potentiate and appear additive with the action of NGF itself.", "values": [
      {"smiles": "Nc1ncc(Cc2ccc(Cl)cc2)c(NCCCCO)n1", "note": "[2-Amino-4-[2-(2-hydroxyethyl)ethylamino]-5-(4-chlorobenzyl)pyrimidine]", "NGF-like in vitro activity (ChAT increase, enhancement of NGF-stimulated neurite outgrowth and/or potentiation of NGF)": "especially potent activities"},
      {"smiles": "Nc1ncc(Cc2ccc(Cl)cc2)c(N2CCC(O)CC2)n1", "note": "[2-Amino-5-(4-chlorobenzyl)-4-(4-hydroxypiperidino)pyrimidine]", "NGF-like in vitro activity (ChAT increase, enhancement of NGF-stimulated neurite outgrowth and/or potentiation of NGF)": "especially potent activities"},
      {"smiles": "Nc1ncc(Oc2ccc(Cl)cc2)c(N2CCN(C=O)CC2)n1", "note": "[2-amino-5-(4-chlorophenoxy)-4-(4-formylpiperazino)pyrimidine]", "NGF-like in vitro activity (ChAT increase, enhancement of NGF-stimulated neurite outgrowth and/or potentiation of NGF)": "especially potent activities"},
      {"smiles": "CN1CCN(c2nc(N)ncc2Oc2ccc(Cl)cc2)CC1", "note": "[2-amino-5-(4-chlorophenoxy)-4-(4-methylpiperazino)pyrimidine]", "NGF-like in vitro activity (ChAT increase, enhancement of NGF-stimulated neurite outgrowth and/or potentiation of NGF)": "especially potent activities"}
    ]}
  ]
}
